Measurements taken from patent US9630961B2, “Arginine methyltransferase inhibitors and uses thereof” (Epizyme, Inc., priority 2013, dated 2017).

The molecules below were run on mono-methyl arginine in RKO cells (assay: RKO Methylation Assay, In Cell Western for mono-methyl arginine and DNA content). Settings: Homo sapiens, 72 hours, percent activation of mono-methyl arginine signal.
Format: cell-based
From the text: RKO Methylation Assay RKO adherent cells were purchased from ATCC (American Type Culture Collection), Manassas, Va., USA. DMEM/Glutamax medium, penicillin-streptomycin, heat inactivated fetal bovine serum, 0.05% trypsin and D-PBS were purchased from Life Technologies, Grand Island, N.Y., USA. Odyssey blocking buffer, 800CW goat anti-rabbit IgG (H+L) antibody, and Licor Odyssey infrared scanner were purchased from Licor Biosciences, Lincoln, Nebr., USA. Mono-methyl arginine antibody was purchased from Cell Signaling Technology, Danvers, Mass., USA. Methanol was purchased from VWR, Franklin, Mass., USA. 10% Tween 20 was purchased from KPL, Inc., Gaithersburg, Md., USA. DRAQ5 was purchased from Biostatus Limited, Leicestershire, UK. RKO adherent cells were maintained in growth medium (DMEM/Glutamax medium supplemented with 10% v/v heat inactivated fetal bovine serum and 100 units/mL penicillin-streptomycin) and cultured at 37° C. under 5% CO2. Cell Treatment, in Cell Western (ICW) for Detection of Mono-Methyl Arginine and DNA Content. RKO cells were seeded in assay medium at a concentration of 20,000 cells per mL to a poly-D-lysine coated 384 well culture plate (BD Biosciences 356697) with 50 μL per well. Compound (100 nL) from a 96-well source plate was added directly to 384 well cell plate. Plates were incubated at 37° C., 5% CO2 for 72 hours. After three days of incubation, plates were brought to room temperature outside of the incubator for ten minutes and blotted on paper towels to remove cell media. 50 μL of ice cold 100% methanol was added directly to each well and incubated for 30 min at room temperature. After 30 min, plates were transferred to a Biotek EL406 plate washer and washed 2 times with 100 μL per well of wash buffer (IX PBS). Next 60 μL per well of Odyssey blocking buffer (Odyssey Buffer with 0.1% Tween 20 (v/v)) were added to each plate and incubated 1 hour at room temperature. Blocking buffer was removed and 20 μL per well of primary antibody was added (mono-methyl arginine diluted 1:200 in Odyssey buffer with 0.1% Tween 20 (v/v)) and plates were incubated overnight (16 hours) at 4° C. Plates were washed 5 times with 100 μL per well of wash buffer. Next 20 μL per well of secondary antibody was added (1:200 800CW goat anti-rabbit IgG (H+L) antibody, 1:1000 DRAQ5 (Biostatus limited) in Odyssey buffer with 0.1% Tween 20 (v/v)) and incubated for 1 hour at room temperature. The plates were washed 5 times with 100 μL per well wash buffer then 2 times with 100 μL per well of water. Plates were allowed to dry at room temperature then imaged on the Licor Odyssey machine which measures integrated intensity at 700 nm and 800 nm wavelengths. Both 700 and 800 channels were scanned. Calculations: First, the ratio for each well was determined by: Each plate included fourteen control wells of DMSO only treatment (minimum activation) as well as fourteen control wells for maximum activation treated with 20 μM of a reference compound. The average of the ratio values for each control type was calculated and used to determine the percent activation for each test well in the plate. Reference compound was serially diluted three-fold in DMSO for a total of nine test concentrations, beginning at 20 μM. Percent activation was determined and EC30 curves were generated using triplicate wells per concentration of compound.
For `CN(CCN)Cc1c[nH]nc1-c1cncnc1` [Compound 4], the EC30 was ≥ 12 µM. For `CN(CCN)Cc1c[nH]nc1-c1cnn(C)c1` [Compound 8], the EC30 was ≥ 12 µM. Molecule `CN(CCN)Cc1c[nH]nc1-c1ccc2scnc2c1` [Compound 9] has an EC30 of 3.01 to 12 µM. In the case of `CN(CCN)Cc1c[nH]nc1-c1cn[nH]c1` [Compound 12], the EC30 was ≥ 12 µM. Work on `CN(CCN)Cc1c[nH]nc1-c1cnc2[nH]ccc2c1` [Compound 13] yielded an EC30 of 3.01 to 12 µM. In the case of `CN(CCN)Cc1c[nH]nc1-c1cc[nH]n1` [Compound 14], the EC30 was ≥ 12 µM. With `CN(CCN)Cc1c[nH]nc1-c1ccnn1C` [Compound 15] the EC30 was ≥ 12 µM. With `CCn1cc(-c2n[nH]cc2CN(C)CCN)cn1` [Compound 16] the EC30 was ≥ 12 µM. With `CN(CCN)Cc1c[nH]nc1-c1cnn(-c2ccccc2)c1` [Compound 17] the EC30 was ≤ 3 µM. For `CN(CCN)Cc1c[nH]nc1-c1cnn(CCO)c1` [Compound 18], the EC30 was ≥ 12 µM. `CN(CCN)Cc1c[nH]nc1-c1ccc2cnn(C)c2c1` [Compound 19, N^1-methyl-N^1-((3-(1-methyl-1H-indazol-6-yl)-1H-pyrazol-4-yl)methyl)ethane-1,2-diamine] was tested, and the EC30 was 3.01 to 12 µM. `CN(CCN)Cc1c[nH]nc1-c1ccc2ncnn2c1` [Compound 20] was tested, and the EC30 was ≥ 12 µM. `CN(CCN)Cc1c[nH]nc1-c1ccc2nccn2c1` [Compound 21, N^1-((3-(imidazo[1,2-a]pyridin-6-yl)-1H-pyrazol-4-yl)methyl)-N^1-methylethane-1,2-diamine] showed an EC30 of 3.01 to 12 µM. In the case of `CC(C)n1cc(-c2n[nH]cc2CN(C)CCN)cn1` [Compound 22], the EC30 was 3.01 to 12 µM. `CC(C)Cn1cc(-c2n[nH]cc2CN(C)CCN)cn1` [Compound 23, N^1-((2′-isobutyl-3,4′-bi(1H-pyrazol)-4-yl)methyl)-N^1-methylethane-1,2-diamine] was tested, and the EC30 was ≤ 3 µM. For `CN(CCN)Cc1c[nH]nc1-c1cnn(Cc2ccccc2)c1` [Compound 24, N^1-((1′-benzyl-3,4′-bi(1H-pyrazol)-4-yl)methyl)-N^1-methylethane-1,2-diamine], the EC30 was ≤ 3 µM. For `Cc1n[nH]c(C)c1-c1n[nH]cc1CN(C)CCN` [Compound 25], the EC30 was ≥ 12 µM. In the case of `CN(CCN)Cc1c[nH]nc1-c1ccc2[nH]ncc2c1` [Compound 27, N^1-((3-(1H-indazol-5-yl)-1H-pyrazol-4-yl)methyl)-N^1-methylethane-1,2-diamine], the EC30 was ≤ 3 µM. For `CN(CCN)Cc1c[nH]nc1-c1cnc(C2CC2)nc1` [Compound 28], the EC30 was ≥ 12 µM.
